The results in this text go back to ChEMBL document CHEMBL4265917, “Antibacterial and antioxidant activities for natural and synthetic dual-active compounds” (Eur J Med Chem, 2018).

The structures appear in SMILES notation. In brackets after ≈: the same amount, converted by molar mass. Bounds are passed on as bounds.

Test [1] concerns Micrococcus luteus. Briefly: Antibacterial activity against Micrococcus lysodeikticus ATCC 4698 after 18 to 24 hrs by microdilution method. The test is classed as functional. For orientation: Broth dilution looks for growth in wells or tubes with falling amounts of substance.
The test system of test [2] is Klebsiella pneumoniae. In words: Antibacterial activity against Klebsiella pneumoniae FSB 26 after 18 to 24 hrs by microdilution method. The test is classed as functional.
Test [3] relates to Enterobacter cloacae. In words: Antibacterial activity against Enterobacter cloacae FSB 22 after 18 to 24 hrs by microdilution method. The test is classed as functional.
In test [4] the test system is Bacillus subtilis. Briefly: Antibacterial activity against Bacillus subtilis FSB 2 after 18 to 24 hrs by microdilution method. The test is classed as functional.
Test [5] concerns Staphylococcus aureus. In words: Antibacterial activity against Staphylococcus aureus ATCC 25923 after 18 to 24 hrs by microdilution method. The test is classed as functional.
Test [6] concerns Pseudomonas savastanoi pv. phaseolicola. Briefly: Antibacterial activity against Pseudomonas phaseolicola FSB 29 after 18 to 24 hrs by microdilution method. The test is classed as functional.
Test [7] relates to Escherichia coli. In words: Antibacterial activity against Escherichia coli ATCC 25922 after 18 to 24 hrs by microdilution method. The test is classed as functional.
Test [8] concerns Staphylococcus aureus. In words: Antibacterial activity against Staphylococcus aureus FSB 30 after 18 to 24 hrs by microdilution method. The test is classed as functional.
Test [9] deals with Azotobacter chroococcum. Briefly: Antibacterial activity against Azotobacter chroococcum FSB 14 after 18 to 24 hrs by microdilution method. The test is classed as functional.
The test system of test [10] is Pseudomonas syringae. Briefly: Antibacterial activity against Pseudomonas glycinea FSB 40 after 18 to 24 hrs by microdilution method. The test is classed as functional, Pseudomonas savastanoi pv. glycinea.
The subject of test [11] is Pseudomonas fluorescens. In words: Antibacterial activity against Pseudomonas fluorescens FSB 28 after 18 to 24 hrs by microdilution method. The test is classed as functional.
Test [12] relates to Pectobacterium carotovorum. In words: Antibacterial activity against Erwinia carotovora FSB 31 after 18 to 24 hrs by microdilution method. The test is classed as functional.
For test [13], the system named is Bacillus mycoides. In words: Antibacterial activity against Bacillus mycoides FSB 1 after 18 to 24 hrs by microdilution method. The test is classed as functional.
Test [14] can be described thus: Antioxidant activity assessed as DPPH free radical scavenging activity after 30 to 60 mins by UV-vis spectrophotometric analysis. The test is classed as functional. Background: Loss of DPPH colour is used to gauge radical scavenging.
Test [15] deals with Staphylococcus aureus. In words: Antibacterial activity against methicillin-resistant Staphylococcus aureus after 24 hrs by microbroth dilution method. The test is classed as functional.
The nature of test [16]: Antioxidant activity assessed as DPPH free radical scavenging activity. The test is classed as functional.
Test [17] is described as follows: Antioxidant activity assessed as DPPH free radical scavenging activity incubated for 30 min by UV-vis spectrophotometric analysis. The test is classed as functional.
Test [18] relates to Escherichia coli. In words: Antibacterial activity against Escherichia coli K-12 MG1655 assessed as bacterial growth inhibition after 24 hrs by serial dilutoin method. The test is classed as functional. Particulars: K-12 substr. MG1655, 24 h.
For test [19], the system named is Staphylococcus aureus. Briefly: Bactericidal activity against Staphylococcus aureus incubated for 24 hrs measured every 30 mins by spectrophotometric analysis. The test is classed as functional.
For test [20], the system named is Staphylococcus aureus. In words: Antibacterial activity against Staphylococcus aureus by turbidity assay. The test is classed as functional.
In test [21] the test system is Bacillus cereus. In words: Antibacterial activity against Bacillus cereus by turbidity assay. The test is classed as functional.
The test system of test [22] is Escherichia coli. Briefly: Antibacterial activity against Escherichia coli by turbidity assay. The test is classed as functional.
Test [23] concerns Proteus vulgaris. In words: Antibacterial activity against Proteus vulgaris by turbidity assay. The test is classed as functional.
Test [24] deals with Staphylococcus aureus. Briefly: Antibacterial activity against Staphylococcus aureus ATCC 29213 assessed as inhibition of bacterial growth at 25 g/L incubated for 24 hrs by serial dilution method relative to cntrol. The test is classed as functional. Particulars: ATCC 29213, 24 h, read-out: GI.
Test [25] concerns Staphylococcus aureus. In words: Bactericidal activity against Staphylococcus aureus ATCC 29213 incubated for 24 hrs by serial dilution method. The test is classed as functional.
In test [26] the test system is Escherichia coli. In words: Antibacterial activity against Escherichia coli after 16 hrs by broth microdilution method. The test is classed as functional.
The test system of test [27] is Staphylococcus aureus. Briefly: Antibacterial activity against Staphylococcus aureus after 16 hrs by broth microdilution method. The test is classed as functional.
Test [28] relates to Escherichia coli. Briefly: Antibacterial activity against Escherichia coli KCTC 1924 after 20 to 36 hrs by disc diffusion method. The test is classed as functional. On the technique in general: In agar diffusion tests the substance spreads into inoculated agar from a disc or well.
For test [29], the system named is Staphylococcus aureus. Briefly: Antibacterial activity against Staphylococcus aureus KCTC 1916 after 20 to 36 hrs by disc diffusion method. The test is classed as functional.

For `CC(Nc1ccc([N+](=O)[O-])cc1)c1c(O)c2ccccc2oc1=O` (configuration not stated), the MIC in test [1], in test [2], in [3], in test [4], in test [5] and in test [6] was 3.9 to 31.2 µg/mL (≈ 12 to 95.6 µM) throughout. In addition, the MIC in [7], in test [8], in test [9], in [10], in test [11] and in test [12] was 3.9 to 31.2 µg/mL (≈ 12 to 95.6 µM) each time. The molecule further registered an MIC in test [13] of 3.9 to 31.2 µg/mL (≈ 12 to 95.6 µM). Also, the IC50 in test [14] is 26 µM.

As to `COc1cc(/C=C/c2cc(/C=C/c3ccc(OCC(=O)N[C@@H](C)c4ccccc4)c(OC)c3)[nH]n2)ccc1OCC(=O)N[C@@H](C)c1ccccc1`, the MIC in test [15] fell in the range of 10 to 20 µg/mL (≈ 14.6 to 29.1 µM).

Regarding `O=C(/C=C/c1ccc(O)c(O)c1)O[C@@H]1C[C@@](O)(C(=O)O)C[C@@H](O)[C@@H]1O`, the EC50 in test [16] is 13.4 µg/mL (≈ 37.8 µM).

As to `O=C(/C=C/c1ccc(O)c(O)c1)O[C@H](Cc1ccc(O)c(O)c1)C(=O)O` [ROSMARINIC ACID], the IC50 in test [17] came out at 0.4 µg/mL (≈ 1.11 µM). Further, the MIC in [18] amounted to 250 µg/mL (≈ 694 µM).

In turn, `COc1cc(/C=C/c2cc(/C=C/c3ccc(OCC(=O)Nc4ccccc4C)c(OC)c3)[nH]n2)ccc1OCC(=O)Nc1ccccc1C` yielded an MIC in test [15] of 10 to 20 µg/mL (≈ 15.2 to 30.4 µM).

With `Cc1ccc(NC(C)c2c(O)c3ccccc3oc2=O)cc1` (configuration not stated), the MIC in test [1], in [2], in test [3], in test [4], in test [5] and in test [6] was 3.9 to 7.8 µg/mL (≈ 13.2 to 26.4 µM) in each case. Moreover, the MIC in test [7], in [8], in test [9], in test [10], in test [11] and in test [12] was 3.9 to 7.8 µg/mL (≈ 13.2 to 26.4 µM) in each case. The MIC in [13] was 3.9 to 7.8 µg/mL (≈ 13.2 to 26.4 µM). Further, in test [14], the IC50 was found to be 94 µM.

Take `COc1ccccc1O` [GUAIACOL]: the IC50 in [16] was 4.1 µg/mL (≈ 33 µM). Further, the minimum bactericidal concentration (MBC) in test [19] was not below 15 mM.

As for `COc1cc(/C=C/c2cc(/C=C/c3ccc(OCC(=O)NC45CC6CC(CC(C6)C4)C5)c(OC)c3)[nH]n2)ccc1OCC(=O)NC12CC3CC(CC(C3)C1)C2`, the MIC in test [15] was 10 to 20 µg/mL (≈ 13.4 to 26.8 µM).

As to `COc1ccccc1NC(=O)COc1ccc(/C=C/c2cc(/C=C/c3ccc(OCC(=O)Nc4ccccc4OC)c(OC)c3)[nH]n2)cc1OC`, the MIC in test [15] fell in the range of 10 to 20 µg/mL (≈ 14.5 to 29 µM).

For the molecule `COc1c2cc(C)cc1n1cc(ccc3cn(c4cc(C)cc(c4OC)n4cc(ccc5cn2c2ccccc52)c2ccccc24)c2ccccc32)c2ccccc21`, the MIC in [20], in test [21], in [22] and in test [23] was 7.81 to 31.2 µg/mL (≈ 10.4 to 41.5 µM) throughout. Moreover, the IC50 in test [16] came to 28 µg/mL (≈ 37.2 µM).

On to `COc1cc(N)ccc1O`, for which, in test [24], the inhibition of growth at 25000 µg/mL was 93%. The molecule also had an MBC99 in test [25] of 10 mM (≈ 1390 µg/mL).

`COc1cc(/C=C/c2cc(/C=C/c3ccc(OCC(=O)Nc4cc(Cl)cc(Cl)c4)c(OC)c3)[nH]n2)ccc1OCC(=O)Nc1cc(Cl)cc(Cl)c1`: the MIC in [15] was 10 to 20 µg/mL (≈ 13 to 26 µM).

In the case of `Cc1ccc(C(C)C)cc1O` [CARVACROL], the MIC in test [26] worked out at 2.5 µg/mL (≈ 16.6 µM); in test [27] it was 1.25 µg/mL (≈ 8.32 µM).

Consider `COc1cc(/C=C/c2cc(/C=C/c3ccc(OCC(=O)Nc4ccc(F)cc4)c(OC)c3)[nH]n2)ccc1OCC(=O)Nc1ccc(F)cc1`, for which the MIC in test [15] lay within 10 to 20 µg/mL (≈ 15 to 30 µM).

Consider `Oc1ccc2ccccc2c1-c1c[nH]c2ccc(F)cc12`, for which the EC50 in test [17] was 3 µg/mL (≈ 10.8 µM). The MIC amounted to 8.71 µg/mL (≈ 31.4 µM) in [28] and 7.32 µg/mL (≈ 26.4 µM) in [29].

Molecule `COc1cc(/C=C/c2cc(/C=C/c3ccc(OCC(=O)NCc4ccccc4)c(OC)c3)[nH]n2)ccc1OCC(=O)NCc1ccccc1` had an MIC in test [15] of 10 to 20 µg/mL (≈ 15.2 to 30.4 µM).

Broadly, the MIC is the lowest concentration found to suppress growth. In general, IC50 refers to the point on the concentration scale where inhibition reaches its midpoint. By EC50 is commonly meant the midpoint of the concentration-response curve. For orientation: MBC means the lowest tested concentration that kills the bacteria rather than only halting them. A lower MBC goes with more potent killing.
